Data taken from patent publication US10981932B2, “Macrocyclic indole derivatives” (Bayer Aktiengesellschaft, priority 2016, dated 2021).
Where “and” joins values, the source holds several entries; their conditions need not be identical. Equal values may be shown once. Where a name gives a salt, the structure may show the parent alone. Read-outs that look alike come from different tables or passages of the source.

Legend:
[1] = tested on: SUDHL10; assay: Induction of cytotoxicity (CellTiter-Glo, 5 h), SUDHL10
[2] = tested on: SUDHL5; assay: Anti-proliferative effect (CellTiter-Glo, 72 h), SUDHL5; type: cell-based; conditions: SUDHL5 cells, antiproliferation, median, read-out: Antiproli SUDHL5 [M] (median)
In short: (§1)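 Anti-proliferative activity is derived from ATP-based luminescence (CellTiter-Glo) in cells exposed to compound for 72 h at 37 °C, set against a time zero plate read at seeding.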

[3] = tested on: A2780; assay: Anti-proliferative effect (CellTiter-Glo, 72 h), A2780; type: cell-based; conditions: A2780 cells, median, read-out: IC50 antiproliferation assay A2780 [M] (median)
In short: as §1

[4] = tested on: MV-4-11; assay: Anti-proliferative effect (CellTiter-Glo, 72 h), MV-4-11; type: cell-based; conditions: MV-4-11 cells, median, read-out: IC50 antiproliferation assay MV-4-11 [M] (median)
In short: as §1

[5] = tested on: SUDHL5; assay: Induction of caspase-3/7 activity (Caspase-Glo 3/7), SUDHL5; type: cell-based; conditions: caspase-3/7 induction, SUDHL5 cells, 3 h treatment, median
In short: (§2)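 Caspase-Glo 3/7 luminescence measured after 3 h compound exposure at 37 °C in SUDHL10 and SUDHL5 cells. EC50 values come from background-corrected signals, with curve bottom set to 1 and plateau set to maximal induction by the reference compound.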

[6] = tested on: SUDHL10; assay: Induction of caspase-3/7 activity (Caspase-Glo 3/7), SUDHL10; type: cell-based; conditions: caspase-3/7 induction, SUDHL10 cells, 3 h treatment, median
In short: as §2

[7] = tested on: SUDHL5; assay: Induction of cytotoxicity (CellTiter-Glo, 5 h), SUDHL5
[8] = target: MCL-1 (Homo sapiens, UniProt Q07820); assay: Protein-protein interaction assay MCL-1/Noxa BH3 peptide (MCL-1 assay), TR-FRET; type: binding; conditions: MBP-MCL-1 / Noxa BH3-derived peptide, median
In short: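 MBP-MCL-1 (1 nM final) was preincubated 10 min at 22 °C with compounds (11 concentrations, 0.1 nM–20 μM, duplicates) in Tris pH 7 buffer with NaCl, KF, Tween-20, DTT and BGG. After 1 h at 22 °C in the dark plus overnight at 4 °C, anti-MBP Eu-cryptate/streptavidin-XL665 TR-FRET was read; IC50 came from a 4-parameter fit.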

[9] = read-out: Cytotox SUDHL10 [M] (median), SUDHL10 cells, cytotoxicity induction, CellTiter-Glo, 5 h, median
[10] = read-out: Cytotox SUDHL5 [M] (median), SUDHL5 cells, cytotoxicity induction, CellTiter-Glo, 5 h, median
[11] = Homo sapiens, SU-DHL10, 5 h, read-out: Cytotox SUDHL10 [M] (median), SUDHL10 cells, cytotoxicity induction, CellTiter-Glo, 5 h, median
[12] = Homo sapiens, SU-DHL-5, 72 h, 72 h
[13] = Homo sapiens, SU-DHL-5, 5 h, read-out: Cytotox SUDHL5 [M] (median), SUDHL5 cells, cytotoxicity induction, CellTiter-Glo, 5 h, median
[14] = read-out: Cytotox SUDHL10 [M] (median), SUDHL10 cells, cytotoxicity induction, CellTiter-Glo, 5 h incubation, median
[15] = read-out: Cytotox SUDHL5 [M] (median), SUDHL5 cells, cytotoxicity induction, CellTiter-Glo, 5 h incubation, median

MCL-1, sequence (Q07820 whole entry): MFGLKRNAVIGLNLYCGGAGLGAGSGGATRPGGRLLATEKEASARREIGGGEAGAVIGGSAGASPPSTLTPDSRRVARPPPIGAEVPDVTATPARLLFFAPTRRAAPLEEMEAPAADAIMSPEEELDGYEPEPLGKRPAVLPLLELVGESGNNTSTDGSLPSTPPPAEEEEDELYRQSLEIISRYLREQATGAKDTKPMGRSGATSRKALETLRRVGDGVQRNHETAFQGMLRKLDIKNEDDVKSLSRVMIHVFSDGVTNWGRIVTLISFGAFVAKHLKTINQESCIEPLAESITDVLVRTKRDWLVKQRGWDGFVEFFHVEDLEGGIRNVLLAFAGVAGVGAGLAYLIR

Row | SMILES | IC50 ([2]; 72 h) | IC50 [3] | IC50 [4] | EC50 [5] | EC50 [6] | IC50 [8] | IC50 [2, 12] | IC50 ([3]; Homo sapiens, A2780, 72 h) | EC50 ([6]; Homo sapiens, SU-DHL10, 3 h) | EC50 ([5]; Homo sapiens, SU-DHL-5, 3 h) | IC50 ([2]; 72 h incubation) | IC50 ([4]; Homo sapiens, MV4-11, 72 h) | IC50 [1, 9] | IC50 [7, 10] | IC50 [1, 11] | IC50 [7, 13] | IC50 [1, 14] | IC50 [7, 15]
1 | Cc1c2c(nn1C)COCCCCn1c(C(=O)O)c(CCCOc3cccc4cc(F)ccc34)c3cccc-2c31 (single isomer, unassigned; enantiomer 1) [Example 303, (−)-7-{3-((6-fluoronaphthalen-1-yl)oxypropyl}-2,3-dimethyl-2,10,11,12,13,15-hexahydropyrazolo[4′,3′:9,10][1,6]oxazacycloundecino[8,7,6-hi]indole-8-carboxylic Acid (Enantiomer 1)] | 6.97e-06 M | 2.4e-05 M | 2.61e-05 M | > 33 µM | > 33 µM | 0.0268 µM | – | – | – | – | – | – | > 3.3e-05 M | > 3.3e-05 M | – | – | – | –
2 | Cn1nc(COCc2ccc(C#N)cc2)c2c1COCCCCn1c(C(=O)O)c(CCCOc3cccc4ccccc34)c3cccc-2c31 (single isomer, unassigned; enantiomer 1) [Example 347, 3-({[(4-cyanobenzyl)oxy]methyl}-1-methyl-7-[3-(naphthalen-1-yloxy)propyl]-1,10,11,12,13,15-hexahydropyrazolo[4′,3′:9,101][1,6]oxazacycloundecino[8,7,6-hi]indole-8-carboxylic acid-N-ethylethanamine Salt (Enantiomer 1)] | – | – | 1.2e-05 M | > 33 µM | – | 0.343 µM | 4.2e-06 M | 9.45e-06 M | > 33 µM | – | – | – | – | > 3.3e-05 M | > 3.3e-05 M | – | – | –
3 | COc1ccc2c(CCCOc3cccc4ccccc34)c(C(=O)O)n3c2c1-c1c(nn(C)c1C)COCCCC3 (single isomer, unassigned; enantiomer 1) [Example 350, 4-methoxy-2,3-dimethyl-7-[3-(naphthalen-1-yloxy)propyl]-2,10,11,12,13,15-hexahydropyrazolo[4′,3′:9,10][1,6]oxazacycloundecino[8,7,6-hi]indole-8-carboxylic acid-N-ethylethanamine Salt (Enantiomer 1)] | – | – | 1.53e-05 M | > 33 µM | – | 0.0563 µM | 1.38e-05 M | > 3.3e-05 M | > 33 µM | 24.3 µM | – | – | > 3.3e-05 M | – | 3.11e-05 M | 2.07e-05 M | – | –
4 | COc1ccc2c(CCCOc3cccc4ccccc34)c(C(=O)O)n3c2c1-c1c(C)nn(C)c1COCCCC3 (single isomer, unassigned; enantiomer 1) [Example 352, 4-methoxy-1,3-dimethyl-7-[3-(naphthalen-1-yloxy)propyl]-1,10,11,12,13,15-hexahydropyrazolo[4′,3′:9,10][1,6]oxazacycloundecino[8,7,6-hi]indole-8-carboxylic Acid Ammonium Salt (Enantiomer 1)] | – | – | 1.05e-05 M | – | – | 0.0454 µM | 1.19e-05 M | > 3.3e-05 M | > 33 µM | > 33 µM | – | – | – | – | > 3.3e-05 M | > 3.3e-05 M | – | –
5 | Cn1nc2c(c1CN1CCOCC1)-c1cccc3c(CCCOc4cccc5ccccc45)c(C(=O)O)n(c13)CCCCOC2 (single isomer, unassigned; enantiomer 2) [Example 080, 2-methyl-3-(morpholin-4-ylmethyl)-7-[3-(naphthalen-1-yloxy)propyl]-2,10,11,12,13,15-hexahydropyrazolo[4′3′:9,10][1,6]oxazacycloundecino[8,7,6-hi]indole-8-carboxylic acid-N-ethylethanamine Salt (Enantiomer 2)] | – | 2.41e-05 M | 1.21e-05 M | > 33 µM | > 33 µM | 0.0312 µM | – | – | – | – | 1.56e-05 M | – | – | – | – | – | > 3.3e-05 M | > 3.3e-05 M
6 | COCCn1nc(C2CC2)c2c1COCCCCn1c(C(=O)O)c(CCCOc3cccc4c3CCCC4)c3cccc-2c31 (single isomer, unassigned; enantiomer 2) [Example 166, 3-Cyclopropyl-1-(2-methoxyethyl)-7-[3-(5,6,7,8-tetrahydronaphthalen-1-yloxy)propyl]-1,10,11,12,13,15-hexahydropyrazolo[4′,3′:9,10][1,6]oxazacycloundecino[8,7,6-hi]indole-8-carboxylic acid-N-ethylethanamine Salt (Enantiomer 2)] | – | 2.82e-05 M | 1.88e-05 M | 30.7 µM | > 33 µM | 0.041 µM | – | – | – | – | 1.26e-05 M | – | – | – | – | – | > 3.3e-05 M | 2.81e-05 M

These reach a lower IC50 [8]. Values come first.

Row | IC50 ([2]; 72 h) | IC50 [3] | IC50 [4] | EC50 [5] | EC50 [6] | IC50 [8] | IC50 [2, 12] | IC50 ([3]; Homo sapiens, A2780, 72 h) | EC50 ([6]; Homo sapiens, SU-DHL10, 3 h) | EC50 ([5]; Homo sapiens, SU-DHL-5, 3 h) | IC50 ([2]; 72 h incubation) | IC50 ([4]; Homo sapiens, MV4-11, 72 h) | SMILES | IC50 [1, 9] | IC50 [7, 10] | IC50 [1, 11] | IC50 [7, 13] | IC50 [1, 14] | IC50 [7, 15]
7 | – | 1.97e-05 M | – | 23.8 µM | 20.2 µM | 0.0234 µM | – | – | – | – | 8.59e-06 M | 1.14e-05 M | Cc1ccc2c(CCCOc3cccc4ccccc34)c(C(=O)O)n3c2c1-c1c(C)nn(C)c1COCCC3 (single isomer, unassigned; enantiomer 2) [Example 026, (−)-9,11,12-trimethyl-1-[3-(naphthalen-1-yloxy)propyl]-5,6,8,9-tetrahydro-4H-pyrazolo[4′,3′:8,9][1,5]oxazecino[7,6,5-hi]indole-2-carboxylic acid-N-ethylethanamine Salt (Enantiomer 2)] | – | – | – | – | 2.58e-05 M | 2.41e-05 M
8 | – | > 3.3e-05 M | – | 11.9 µM | 26.9 µM | 0.00943 µM | – | – | – | – | 1.48e-05 M | 9.83e-06 M | COCc1nn(C)c2c1-c1cccc3c(CCCOc4cccc5ccccc45)c(C(=O)O)n(c13)CCCCCOC2 (single isomer, unassigned; enantiomer 2) [Example 179, 3-(methoxymethyl)-1-methyl-7-[3-(naphthalen-1-yloxy)propyl]-1,11,12,13,14,16-hexahydro-10H-pyrazolo[3′,4′:3,4][1,7]oxazacyclododecino[5,6,7-hi]indole-8-carboxylic acid-N-ethylethanamine Salt (Enantiomer 2)] | – | – | – | – | > 3.3e-05 M and 3.15e-05 M | 1.22e-05 M
9 | – | 2.28e-05 M | 1.92e-05 M | 13.1 µM | 17.5 µM | 0.0155 µM | – | – | – | – | 1.03e-05 M | – | CCc1c2c(nn1CCN1CCOCC1)COCCCCn1c(C(=O)O)c(CCCOc3cccc4ccccc34)c3ccc(C)c-2c31 (single isomer, unassigned; enantiomer 2) [Example 206, 3-ethyl-4-methy-2-[2-(morpholin-4-yl)ethyl]-7-[3-(naphthalen-1-yloxy)propyl]-2,10,11,1213,15-hexahydropyrazolo[4′3′:9,10][1,6]oxazacycloundecino[8,7,6-hi]indole-carboxylic Acid (Enantiomer 2)] | – | – | – | – | 1.6e-05 M | 1.4e-05 M
10 | 1.99e-06 M | – | 4.78e-06 M | 0.674 µM | 4.2 µM | 0.00126 µM | – | 2.25e-05 M | – | – | – | – | Cc1c2c(nn1C)COCCCCn1c(C(=O)O)c(CCCOc3cccc4cc(F)ccc34)c3cccc-2c31 (single isomer, unassigned; enantiomer 2) [Example 302, (+)-7-{3-[(6-fluoronaphthalen-1-yl)oxy]propyl}-2,3-dimethyl-2,10,11,12,13,15-hexahydropyrazolo[4′,3′:9,10][1,6]oxazacycloundecino[8,7,6-hi]indole-8-carboxylic Acid (Enantiomer 2)] | 3.49e-06 M | 1.05e-06 M | – | – | – | –
11 | 5.12e-06 M | 1.46e-05 M | 4.15e-06 M | 14.6 µM | 16.8 µM | 0.0196 µM | – | – | – | – | – | – | Cn1nc(COCc2ccc(C#N)cc2)c2c1COCCCCn1c(C(=O)O)c(CCCOc3cccc4ccccc34)c3cccc-2c31 (single isomer, unassigned; enantiomer 2) [Example 348, 3-{[(4-cyanobenzyl)oxy]methyl}-1-methyl-7-[3-(naphthalen-1-yloxy)propyl]-1,10,11,12,13,15-hexahydropyrazolo[4′,3′:9,10][1,6]oxazacycloundecino[8,7,6-hi]indole-8-carboxylic acid-N-ethylethanamine Salt (Enantiomer 2)] | 2.81e-05 M | 1.38e-05 M | – | – | – | –
